Results reported in patent US9198913B2, “Nitroimidazooxazines and their uses in anti-tubercular therapy” (priority 2009, dated 2015).
Values after ≈ are worked out from the molar mass of the structure shown.

Tests used:
[1] = Water solubility (sonicated suspension, HPLC); assay type: physicochemical; details: in water; for solubility at 15 min: thermodynamic from solid;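 as to all read-outs here: concentration in the clear supernatant quantified by HPLC peak area against a DMSO standard solution of the same compound, corrected for dilution and injection volume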
[2] = Stability to human liver microsomes; assay type: in vitro ADME; details: 1 μM, 37° C., 60 min, pooled human liver microsomes;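 also: parent compound quantified by LC-MS/MS against an internal standard, duplicates averaged, expressed relative to the 0 min sample taken as 100%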
[3] = Stability to mouse liver microsomes; assay type: in vitro ADME; details: 1 μM, 37° C., 60 min, CD-1 mouse liver microsomes;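 also: analyte quantified by LC-MS/MS as ratio to internal standard peak area, mean of duplicates, 60 min value expressed relative to the 0 min level (100%)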
[4] = In vivo pharmacokinetics in mice; details: CD-1 mice, oral, 40 mg/kg; for Cmax / half-life / Kp: mouse; for Cmax / half-life: in vivo, plasma; for half-life: read-out: t½ (h) plasma (converted); for Kp: lung/plasma, read-out: AUC ratio (lung/plasma);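 as to all read-outs here: plasma and lung samples quantified by LC-MS/MS, dosing as a suspension in aqueous carboxymethylcellulose with Tween 80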
[5] = system: M. tuberculosis Erdman; test: In vivo mouse chronic TB infection assay; set-up: species or system Mycobacterium tuberculosis; details: mice, oral 100 mg/kg, treatment beginning ~70 days after infection
[6] = system: M. tuberculosis Erdman; test: In vivo mouse acute TB infection assay; set-up: species or system Mycobacterium tuberculosis; details: BALB/c mice; for In vivo efficacy vs PA-824, Acute: oral 100 mg/kg daily 5 days a week for 3 weeks from day 11 post-infection, ratio of average lung CFU reduction to that with PA-824

For `O=[N+]([O-])c1cn2c(n1)OC[C@@H](OCc1ccc(-c3ccc(OC(F)(F)F)c(F)c3)cc1)C2` [Compound 2, (6S)-6-{[3′-Fluoro-4′-(trifluoromethoxy)[1,1′-biphenyl]-4-yl]methoxy}-2-nitro-6,7-dihydro-5H-imidazo[2,1-b][1,3]oxazine], the solubility at 15 min [1] was 0.1 µg/mL (≈ 0.221 µM), the “Microsomes (% remaining, 1 h) Human” value [2] was 93% and the “Microsomes (% remaining, 1 h) Mouse” value [3] was 86%. The AUC lung [4] was over 513 µg·h/mL, the Cmax [4] was 17100 ng/mL and the half-life [4] was 20.5 h. It also gave a melting point of 169 to 171 °C.

In the case of `O=[N+]([O-])c1cn2c(n1)OC[C@@H](OCc1ccc(-c3ccc(C(F)(F)F)cn3)cc1)C2` [Compound 8, (6S)-2-Nitro-6-({4-[5-(trifluoromethyl)-2-pyridinyl]benzyl}oxy)-6,7-dihydro-5H-imidazo[2,1-b][1,3]oxazine], the Solubility [1] is reported as 0.20 µg/mL (≈ 0.476 µM), the “Microsomes (% remaining, 1 h) Human” value [2] is reported as 93% and the “Microsomes (% remaining, 1 h) Mouse” value [3] is reported as 90%. It also gave an AUC lung [4] of 67.3 µg·h/mL, a Kp [4] of 3.3 and a melting point of 252 to 254 °C.

For `Cn1nc(-c2ccc(OC(F)(F)F)cc2)cc1CO[C@@H]1COc2nc([N+](=O)[O-])cn2C1` [Compound 11, (6S)-6-({1-Methyl-3-[4-(trifluoromethoxy)phenyl]-1H-pyrazol-5-yl}methoxy)-2-nitro-6,7-dihydro-5H-imidazo[2,1-b][1,3]oxazine], the solubility at 15 min [1] was 5.3 µg/mL (≈ 12.1 µM), the “Microsomes (% remaining, 1 h) Human” value [2] was 86% and the “Microsomes (% remaining, 1 h) Mouse” value [3] was 81%. For the same compound, the “In vivo efficacy vs PA-824, Chronic” value ([5]; ratio of average lung CFU reduction to that with PA-824) was 0.9, the AUC lung [4] was 92.4 µg·h/mL and the Cmax [4] was 1660 ng/mL. The half-life [4] was 6.6 h and the Kp [4] was 4.7.

In the case of `O=[N+]([O-])c1cn2c(n1)OC[C@@H](OCc1ccc(-c3ccc(OC(F)(F)F)cc3)cc1F)C2` [Compound 12, (6S)-6-{[3-Fluoro-4′-(trifluoromethoxy)[1,1′-biphenyl]-4-yl]methoxy}-2-nitro-6,7-dihydro-5H-imidazo[2,1-b][1,3]oxazine], the solubility at 15 min [1] is reported as 1.4 µg/mL (≈ 3.09 µM), the “Microsomes (% remaining, 1 h) Human” value [2] is reported as 93% and the “Microsomes (% remaining, 1 h) Mouse” value [3] is reported as 85%. For the same compound, the “In vivo efficacy vs PA-824, Acute” value [6] was 33, the AUC lung [4] was 549 µg·h/mL and the half-life [4] was 22 h. It also gave a Kp [4] of 2.7 and a melting point of 160 to 162 °C.

In the case of `O=[N+]([O-])c1cn2c(n1)OC[C@@H](OCc1ccc(-c3ccc(C(F)(F)F)cn3)cc1F)C2` [Compound 14, (6S)-6-({2-Fluoro-4-[5-(trifluoromethyl)-2-pyridinyl]benzyl}oxy)-2-nitro-6,7-dihydro-5H-imidazo[2,1-b][1,3]oxazine], the solubility at 15 min [1] is reported as 1.2 µg/mL (≈ 2.74 µM), the “Microsomes (% remaining, 1 h) Human” value [2] is reported as 90% and the “Microsomes (% remaining, 1 h) Mouse” value [3] is reported as 77%. The AUC lung [4] was 148 µg·h/mL, the Cmax [4] was 440 ng/mL and the half-life [4] was 13.9 h. The Kp [4] was 16 and the melting point was 233 to 235 °C.

With `O=[N+]([O-])c1cn2c(n1)OC[C@@H](OCc1cnc(-c3ccc(OC(F)(F)F)cc3)nc1)C2` [Compound 16, (6S)-2-Nitro-6-({2-[4-(trifluoromethoxy)phenyl]-5-pyrimidinyl}methoxy)-6,7-dihydro-5H-imidazo[2,1-b][1,3]oxazine] the Solubility [1] was 2.1 µg/mL (≈ 4.8 µM), the “Microsomes (% remaining, 1 h) Human” value [2] was 96% and the “Microsomes (% remaining, 1 h) Mouse” value [3] was 87%. The AUC lung [4] was 131 µg·h/mL, the Cmax [4] was 1160 ng/mL and the half-life [4] was 23.1 h. It also gave a melting point of 227 to 230 °C.

In the case of `O=C(O[C@@H]1COc2nc([N+](=O)[O-])cn2C1)N1CCN(c2ccc(OC(F)(F)F)cc2)CC1` [Compound 20, (6S)-2-Nitro-6,7-dihydro-5H-imidazo[2,1-b][1,3]oxazin-6-yl 4-[4-(trifluoromethoxy)phenyl]-1-piperazinecarboxylate], the solubility at 15 min [1] is reported as 17 µg/mL (≈ 37.2 µM), the “Microsomes (% remaining, 1 h) Human” value [2] is reported as 82% and the “Microsomes (% remaining, 1 h) Mouse” value [3] is reported as 85%. For the same compound, the AUC lung [4] was 169 µg·h/mL and the melting point was 166 to 168 °C.

For `O=[N+]([O-])c1cn2c(n1)OC[C@@H](OCc1ccc(-c3ccc(OC(F)(F)F)c(F)c3)cn1)C2` [Compound 22, (6S)-6-({5-[3-Fluoro-4-(trifluoromethoxy)phenyl]-2-pyridinyl}methoxy)-2-nitro-6,7-dihydro-5H-imidazo[2,1-b][1,3]oxazine], the Solubility [1] was 30 µg/mL (≈ 66 µM), the “Microsomes (% remaining, 1 h) Human” value [2] was 97% and the “Microsomes (% remaining, 1 h) Mouse” value [3] was 86%. For the same compound, the AUC lung [4] was 155 µg·h/mL, the Kp [4] was 1.1 and the melting point was 182 to 184 °C.

In the case of `O=[N+]([O-])c1cn2c(n1)OC[C@@H](OCc1ccc(-c3ccc(C(F)(F)F)nc3)cc1F)C2` [Compound 23, (6S)-6-({2-Fluoro-4-[6-(trifluoromethyl)-3-pyridinyl]benzyl}oxy)-2-nitro-6,7-dihydro-5H-imidazo[2,1-b][1,3]oxazine], the solubility at 15 min [1] is reported as 5.7 µg/mL (≈ 13 µM), the “Microsomes (% remaining, 1 h) Human” value [2] is reported as 96% and the “Microsomes (% remaining, 1 h) Mouse” value [3] is reported as 78%. It also gave an AUC lung [4] of 55.4 µg·h/mL, a Cmax [4] of 1560 ng/mL and a half-life [4] of 4.9 h. The Kp [4] was 2.5 and the melting point was 195 to 198 °C.

With `O=[N+]([O-])c1cn2c(n1)OC[C@@H](OCc1ccc(-c3ccc(OC(F)(F)F)cc3)nn1)C2` [Compound 24, (6S)-2-Nitro-6-({6-[4-(trifluoromethoxy)phenyl]-3-pyridazinyl}methoxy)-6,7-dihydro-5H-imidazo[2,1-b][1,3]oxazine] the Solubility [1] was 6.1 µg/mL (≈ 13.9 µM), the “Microsomes (% remaining, 1 h) Human” value [2] was 94% and the “Microsomes (% remaining, 1 h) Mouse” value [3] was 92%. The AUC lung [4] was 93.9 µg·h/mL, the Cmax [4] was 3560 ng/mL and the melting point was 194 °C (dec.).

For `O=[N+]([O-])c1cn2c(n1)OC[C@@H](OCc1ccc(-c3ccc(OC(F)(F)F)c(Cl)c3)nc1)C2` [Compound 28, (6S)-6-({6-[3-Chloro-4-(trifluoromethoxy)phenyl]-3-pyridinyl}methoxy)-2-nitro-6,7-dihydro-5H-imidazo[2,1-b][1,3]oxazine], the Solubility [1] was 0.18 µg/mL (≈ 0.382 µM), the “Microsomes (% remaining, 1 h) Human” value [2] was 87% and the “Microsomes (% remaining, 1 h) Mouse” value [3] was 77%. It also gave an AUC lung [4] of 284 µg·h/mL, a Cmax [4] of 2890 ng/mL and a half-life [4] of 21.7 h. The melting point was 169 to 171 °C.

With `O=[N+]([O-])c1cn2c(n1)OC[C@@H](OCC#Cc1ccc(-c3ccc(OC(F)(F)F)cc3)cc1)C2` [Compound 30, (6S)-2-Nitro-6-({3-[4′-(trifluoromethoxy)[1,1′-biphenyl]-4-yl]-2-propynyl}oxy)-6,7-dihydro-5H-imidazo[2,1-b][1,3]oxazine] the Solubility [1] was 0.07 µg/mL (≈ 0.152 µM), the “Microsomes (% remaining, 1 h) Human” value [2] was 93% and the “Microsomes (% remaining, 1 h) Mouse” value [3] was 85%. The “In vivo efficacy vs PA-824, Acute” value [6] was 89, the AUC lung [4] was 13.6 µg·h/mL and the Kp [4] was 1.4. For the same compound, the melting point was 192 to 194 °C.

In the case of `O=[N+]([O-])c1cn2c(n1)OC[C@@H](OCc1ccc(OC(F)(F)F)cc1)C2` [PA-824, reference compound], the “Microsomes (% remaining, 1 h) Human” value [2] is reported as 82%, the “log reductions in CFU (acute assay)” value ([6]; oral 100 mg/kg, lungs, vs vehicle, 'up to') is reported as 2.5-3 log and the “log reduction in CFU (chronic assay)” value [5] is reported as about 2 log. For the same compound, the AUC lung [4] was 296 µg·h/mL, the Cmax [4] was 5500 ng/mL and the half-life [4] was 4.2 h. For the same compound, the Kp [4] was 3.8.
